Test results: patent US20260191998A1, “INDOLE PHTHALOCYANINE COMPOUND, PREPARATION METHOD THEREFOR, AND USE THEREOF IN TUMOR DIAGNOSIS IMAGING” (JIANGSU YAHONG MEDITECH CO., LTD., priority 2022, published 2026)
Where a name gives a salt, the structure may show the parent alone.

What was measured:
[1] = Kinetic solubility in phosphate buffered saline (HPLC); format: physicochemical; conditions: phosphate buffered saline (PBS), aqueous buffer, kinetic from dmso stock, 25° C., shaken 2 hours, from 10 mM DMSO stock
Protocol: The compounds were weighed in an appropriate amount and dissolved in DMSO to prepare a 10 mM stock solution. 30 μL of the stock solution was taken and 970 μL of phosphate buffered saline solution (PBS) was added thereto. The solution was shaken at 25° C. on a thermostatic mixer for 2 hours, and centrifuged at 12000 rpm for 10 minutes. The supernatant was taken, and the kinetic solubility of each compound in phosphate buffered saline solution (PBS) was determined by Waters Acquity Arc HPLC.

hERG channels = hERG channels (Homo sapiens, UniProt Q12809); experiment: hERG whole-cell patch clamp in HEK 293 cells stably expressing hERG; format: cell-based; conditions: HEK 293 stably expressing hERG, tail current
Protocol: The HEK 293 cell line (K1236) stably expressing hERG was purchased from Invitrogen. Cells were cultured in 85% DMEM, 10% dialyzed FBS, 0.1 mM NEAA, 25 mM HEPES, 100 U/mL penicillin-streptomycin, 5 μg/mL blasticidin and 400 μg/mL geneticin. Cells were split using TrypLE™ about three times a week, and maintained at a confluence of about 40% to about 80%. Before measurement, cells were cultured at a density of 5×10^5 in a 6 cm culture dish and induced with 1 μg/mL doxycycline for 48 hours.
Extracellular solution (mM): 132 NaCl, 4 KCl, […], 0.5 MgCl2, 11.1 glucose, 10 HEPES (pH 7.35 adjusted with NaOH);
Intercellular solution (mM): 140 KCl, 2 MgCl2, 10 EGTA, 10 HEPES, 5 MgATP (pH 7.35 adjusted with KOH).
The test compounds were formulated in DMSO to prepare a stock solution with a final concentration of 10 mM.
Then, the stock solution of each compound was diluted with DMSO in a 1:3 serial dilution to prepare five intermediate solutions with concentrations of 3, 1, 0.33, 0.12, 0.04 mM or 3.33, 1.11, 0.37, 0.12 mM, respectively.
Before testing, the final working solutions were prepared by diluting the intermediate solutions 1000 times with the extracellular solution. The concentration of DMSO in the working solutions was within a range around 0.1%.
The working solutions at five different concentrations of 3, 1, 0.33, 0.12 and 0.04 μM were used to determine the potential inhibition effect of the compounds on hERG channels and to fit concentration-response curves and calculate IC50.
The coverslip was removed from the cell culture dish and placed on a microscope stage.
A 10× objective was used to locate cells to be observed. An electrode tip was located under the microscope using the 10× objective by focusing above the plane of the cells. Once the tip was in focus, the electrode was advanced downward towards the cells under rough control of the manipulator, while the objective was moved so as to keep the tip in focus.
When the electrode was directly over a cell, the objective was switched to a 40× objective and fine control of the manipulator was used to enable to gradually approach the cell surface.
With gentle suction through a side port of an electrode holder, a giga-ohm seal was formed.
Cfast was used to eliminate the capacitive current consistent with the voltage step. Brief and strong suction was applied repeatedly until the membrane patch ruptured and the whole-cell configuration was obtained.
At this point, membrane potential was set to −60 mV in order to ensure that hERG channels were not open. Then, Cslow on the amplifier was used to remove the spikes of capacitive current.
Holding potential was set to −90 mV for 500 ms. Current was recorded at 20 kHz and filtering was carried out at 10 kHz. Leak current was tested at −80 mV for 500 ms.
The hERG current was elicited by depolarizing at +30 mV for 4.8 seconds, and then the voltage was restored to −50 mV for 5.2 seconds to remove the inactivation and observe the deactivating tail current. The maximum of tail current size was used to determine hERG current amplitude.
Current was recorded for 120 seconds to evaluate the current stability. Only stable cells with recording parameters above thresholds were used for drug administrations.
Firstly, vehicle control was applied to the cells to establish the baseline. […] The hERG current in the presence of the test compound was recorded for about 5 minutes to reach a steady state, and then 5 sweeps were captured. For dose-response testing, multiple compounds were applied to the cells cumulatively from low to high concentrations (multiple compounds were detected simultaneously). The positive control, Dofetilide at a concentration of 150 nM, was also applied to each cell post hERG current measurement at the highest concentration of the test compound, which was used as an internal low control for normalization of percentage inhibition. […]

RT112 tumor [2] = conditions: 2 mg/kg or 0.4 mg/kg intraperitoneal, 48 hours after injection
Protocol: All animal experiments were conducted exactly in accordance with the guidelines for the care and use of animals issued by the regional animal committee. A mouse model of xenograft RT112 tumor was established by subcutaneous injection of RT112 cell suspension (2×10^6 cells/mouse, 0.1 ml PBS) into the upper right limb of 8- to 10-week-old BALB/C female nude mice (20 to 25 g). BABL/c nude mice (15 to 20 g) were purchased from Beijing Vital River Laboratory Animal Technology Co., Ltd. For in vivo near-infrared fluorescence (NIRF) imaging, the RT112 tumor-bearing mice were intraperitoneally injected with different doses of free compounds (2 mg/kg or 0.4 mg/kg), respectively. At 48 hours after injection, near-infrared imaging was performed using an IVIS Lumina spectroscopic imaging system (excitation/emission, 780/845 nm).

[3] = system: human bladder cancer cell line UM-UC-3; experiment: In vitro imaging effect test with addition of BSP, UM-UC-3; format: cell-based; conditions: 250 μM BSP, compound 1-20 μM with surfactin 1:5, 30 minutes
Protocol: UM-UC-3 (1.5×10^4/well) were cultured in EMEM medium (containing 10% fetal bovine serum (FBS) and 1% antibiotics (100 U/mL penicillin and 100 U/mL streptomycin)) and seeded in a 96-well plate in advance. The plate was cultured in a 5% CO2 cell culture incubator at 37° C. overnight. The following day, the culture medium was sucked away, and 250 μM of BSP was added to the test wells and preconditioned for 10 minutes, followed by addition of the culture medium containing an appropriate concentration (1-20 μM) of the compound and surfactin (the molar ratio of the test compound to the surfactin being 1:5) with or without 250 μM of BSP, and then incubated for 30 minutes. The cells were rinsed three times with PBS solution, and the near-infrared fluorescence intensity in the bladder cancer cells was observed using an integrated fluorescence microscopic imaging system from Keyence. The conditions for near-infrared photography were Ex=775/50 nm and Em=845/55 nm.

[4] = UV-VIS absorption spectra (optical property test); format: physicochemical; conditions: 10 μM, DMSO solution; for Absorbance × 10^4: at maximum absorption peak
Protocol: The UV-VIS absorption spectra of the compounds (10 μM, DMSO solution) were detected using Shimadzu UV2600 spectrophotometer, and the maximum absorption peak and absorbance of each compound were obtained.

RT112 tumor [5] = experiment: Tumor/background ratio in subcutaneous RT112 tumor model mice; format: in vivo; conditions: 2 mpk intraperitoneal, 48 hours after injection
Description: The subcutaneous tumor model mice inoculated with RT112 tumor were selected. Each compound was administrated at a dose of 2 mpk, and intraperitoneally injected.

Chain of hERG channels (Q12809 whole entry): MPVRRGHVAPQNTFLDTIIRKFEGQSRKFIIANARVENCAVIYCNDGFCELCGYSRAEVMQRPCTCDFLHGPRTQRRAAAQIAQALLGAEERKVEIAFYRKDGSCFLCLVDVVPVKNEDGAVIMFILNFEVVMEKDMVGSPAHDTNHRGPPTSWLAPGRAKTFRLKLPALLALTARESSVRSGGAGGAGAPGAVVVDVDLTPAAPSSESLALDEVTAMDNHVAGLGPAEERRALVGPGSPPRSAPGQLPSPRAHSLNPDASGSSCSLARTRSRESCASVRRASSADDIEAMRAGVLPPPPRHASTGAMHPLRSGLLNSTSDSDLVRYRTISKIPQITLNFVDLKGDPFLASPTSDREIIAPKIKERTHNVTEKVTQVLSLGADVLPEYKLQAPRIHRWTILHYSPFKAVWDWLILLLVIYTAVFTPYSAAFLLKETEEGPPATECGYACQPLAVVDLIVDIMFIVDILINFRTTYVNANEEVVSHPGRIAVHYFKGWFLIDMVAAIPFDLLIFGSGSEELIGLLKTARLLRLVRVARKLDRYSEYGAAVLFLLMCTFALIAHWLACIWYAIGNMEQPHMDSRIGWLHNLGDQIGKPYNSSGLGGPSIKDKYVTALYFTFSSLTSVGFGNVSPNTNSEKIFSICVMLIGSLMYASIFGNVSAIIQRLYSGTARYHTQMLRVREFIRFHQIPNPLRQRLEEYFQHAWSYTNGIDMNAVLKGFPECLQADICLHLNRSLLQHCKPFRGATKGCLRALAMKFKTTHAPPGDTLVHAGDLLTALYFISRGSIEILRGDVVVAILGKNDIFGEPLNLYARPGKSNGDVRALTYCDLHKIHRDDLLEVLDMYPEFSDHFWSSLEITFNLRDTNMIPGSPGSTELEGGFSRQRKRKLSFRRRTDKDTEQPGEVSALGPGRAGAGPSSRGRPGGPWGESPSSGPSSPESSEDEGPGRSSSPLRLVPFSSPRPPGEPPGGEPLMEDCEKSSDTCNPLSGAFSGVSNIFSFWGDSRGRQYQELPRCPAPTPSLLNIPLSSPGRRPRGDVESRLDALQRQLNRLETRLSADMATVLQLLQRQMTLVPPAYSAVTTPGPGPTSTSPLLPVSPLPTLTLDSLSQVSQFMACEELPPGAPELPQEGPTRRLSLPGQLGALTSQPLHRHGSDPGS

Row | Structure (SMILES) | solubility kinetic at 2 h [1] [µg/mL] | IC50 (hERG channels) [nM] | Enrichment at the tumor sites (NIR fluorescence) (RT112 tumor [2]) | Uptake by UM-UC-3 with or without BSP [3] | Absorption peak [4] [nm] | Absorbance × 10^4 [4] | Tumor/background ratio (RT112 tumor [5])
1 | C[N+]1=C(/C=C/C2=C(Cl)C(=C/C=C3/N(CCCCCC(=O)O)c4ccccc4C3(C)C)/CC2)C(C)(C)c2ccccc21 [Example 10, 2-((E)-2-((E)-3-(2-((E)-1-(5-carboxypentyl)-3,3-dimethylindolin-2-ylidene)ethenyl)-2-chlorocyclopent-1-en-1-yl)ethenyl)-1,3,3-trimethyl-3H-indol-1-ium Chloride] | 26 | 1330 | specifically enriched at the tumor sites | may be weakened or enhanced by BSP | 821 | 2.08 | 3.3
2 | CC[N+]1=C(/C=C/C2=C(Cl)C(=C/C=C3/N(CCOCCC(=O)Oc4ccccc4)c4ccccc4C3(C)C)/CCC2)C(C)(C)c2ccccc21 [Example 7, 2-((E)-2-((E)-2-chloro-3-(2-((E)-3,3-dimethyl-1-(2-(3-oxo-3-phenoxypropoxy)ethyl)indolin-2-ylidene)ethenyl)cyclohex-1-en-1-yl)ethenyl)-1-ethyl-3,3-dimethyl-3H-indol-1-ium Trifluoroacetate] | – | – | specifically enriched at the tumor sites | may be weakened or enhanced by BSP | 794.5 | 1.92 | –
